# Measured values taken from US9796733B2, “Imidazo-pyrazine derivatives useful as soluble guanylate cyclase activators” (Merck Sharp & Dohme Corp., priority 2014, dated 2017).
# Tests used:
# [1] = target: T1, sGC α1/β1 heterodimer (Homo sapiens, UniProt Q02108+Q02153); test: Cell-based sGC functional assay (CASA assay): cGMP generation in CHO-K1/sGC cells, HTRF detection; settings: for Emax: CHO-K1, percent activation relative to standard Compound A in CHO-K1/sGC cells, read-out: % Act.; for EC50: inflection point (IP) of cGMP generation in CHO-K1/sGC cells, 4P fit, activity expressed as percentage of Compound A
# T1 construct: expressed in transfected cells; host or cells: CHO-K1 (clone #7, CHO-K1/sGC)
# T1 sequence (Q02108 1-690): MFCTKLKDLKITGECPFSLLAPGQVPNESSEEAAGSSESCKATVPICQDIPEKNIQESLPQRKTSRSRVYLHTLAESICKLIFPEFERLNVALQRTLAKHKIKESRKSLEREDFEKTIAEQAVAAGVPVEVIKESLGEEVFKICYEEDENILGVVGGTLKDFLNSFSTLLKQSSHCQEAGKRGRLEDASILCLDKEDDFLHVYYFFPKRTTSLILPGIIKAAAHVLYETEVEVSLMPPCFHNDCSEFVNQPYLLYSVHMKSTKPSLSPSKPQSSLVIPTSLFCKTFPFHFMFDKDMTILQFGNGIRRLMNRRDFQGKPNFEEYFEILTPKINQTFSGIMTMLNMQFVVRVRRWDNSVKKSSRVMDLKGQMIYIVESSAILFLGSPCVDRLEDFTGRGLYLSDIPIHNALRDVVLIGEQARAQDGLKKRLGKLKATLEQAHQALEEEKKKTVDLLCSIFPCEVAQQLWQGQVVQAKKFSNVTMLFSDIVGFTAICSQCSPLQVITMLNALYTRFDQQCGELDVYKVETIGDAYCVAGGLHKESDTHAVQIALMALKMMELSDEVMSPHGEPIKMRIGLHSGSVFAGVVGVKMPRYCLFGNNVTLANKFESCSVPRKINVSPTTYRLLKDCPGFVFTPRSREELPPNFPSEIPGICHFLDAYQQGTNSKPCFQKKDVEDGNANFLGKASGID
# T1 sequence (Q02153 1-619): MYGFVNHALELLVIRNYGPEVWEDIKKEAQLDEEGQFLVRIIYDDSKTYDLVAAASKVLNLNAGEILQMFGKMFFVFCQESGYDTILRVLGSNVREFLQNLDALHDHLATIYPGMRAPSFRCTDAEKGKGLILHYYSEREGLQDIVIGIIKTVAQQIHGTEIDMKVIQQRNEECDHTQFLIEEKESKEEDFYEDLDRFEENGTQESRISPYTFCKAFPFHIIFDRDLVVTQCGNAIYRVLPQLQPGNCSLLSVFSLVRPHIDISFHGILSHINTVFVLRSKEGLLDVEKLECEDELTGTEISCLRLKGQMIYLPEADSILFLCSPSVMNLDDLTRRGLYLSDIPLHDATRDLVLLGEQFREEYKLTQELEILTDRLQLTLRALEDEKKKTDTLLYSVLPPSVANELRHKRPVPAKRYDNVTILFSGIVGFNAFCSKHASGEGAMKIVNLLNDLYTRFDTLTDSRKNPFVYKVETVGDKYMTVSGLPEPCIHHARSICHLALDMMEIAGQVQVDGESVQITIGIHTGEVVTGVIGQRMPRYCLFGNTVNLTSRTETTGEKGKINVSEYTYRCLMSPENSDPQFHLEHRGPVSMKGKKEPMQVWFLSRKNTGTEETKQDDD
# Summary of the method: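 Stable CHO-K1/sGC cells in EBSS buffer with 5 mM MgCl2, 0.05% BSA and 0.5 mM IBMX were incubated with compound (2.5% DMSO final) ±1 μM DETA-NO for 1 hr at 37° C. cGMP was measured by HTRF. Activation is expressed as % of reference HDA Compound A maximum, with IP and max fold induction from a 4P fit.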
# [2] = test system: Spontaneously hypertensive rats (SHR); test: Acute efficacy in spontaneously hypertensive rats (SHR): telemetry blood pressure lowering after a single oral dose; assay type: in vivo, rat
# Summary of the method: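 Male SHR carrying aortic telemetry implants (14-day recovery) received a single oral gavage of compound or vehicle (10% transcutol/20% Cremophor/70% water). Conscious blood pressure was sampled 30 s every 10 min and averaged hourly; change was taken against the prior-day vehicle baseline, reported as maximum peak SBP decrease at a given PO dose (mpk).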
SMILES,Emax [1] [%],EC50 [1] [nM],"Maximum peak decrease of systolic blood pressure (SBP) in SHR, Cat. ([2]; P.O. 1.0 mpk)","Maximum peak decrease of systolic blood pressure (SBP) in SHR, Cat. ([2]; P.O. 0.3 mpk)","Maximum peak decrease of systolic blood pressure (SBP) in SHR, Cat. ([2]; P.O. 3.0 mpk)"
"CC1(c2nnc(C3CC3)s2)C(=O)Nc2nc(-c3cn4ccnc4c(CCC(F)(F)C(F)(F)F)n3)nc(N)c21 (stereo not drawn) [Example 59A, 4-amino-5-(5-cyclopropyl-1,3,4-thiadiazol-2-yl)-5-methyl-2-(8-(3,3,4,4,4-pentafluorobutyl)imidazo[1,2-a]pyrazin-6-yl)-5H-pyrrolo[2,3-d]pyrimidin-6(7H)-one]",97,67,A (Category A=SBP in SHRs<20 mmHg),,
"CC1(C(=O)NC2CC2)C(=O)Nc2nc(-c3cn4ccnc4c(CCC(F)(F)C(F)(F)F)n3)nc(N)c21 (stereo not drawn) [Example 60A, 4-amino-N-cyclopropyl-5-methyl-6-oxo-2-(8-(3,3,4,4,4-pentafluorobutyl)imidazo[1,2-a]pyrazin-6-yl)-6,7-dihydro-5H-pyrrolo[2,3-d]pyrimidine-5-carboxamide]",41,88,A (Category A=SBP in SHRs<20 mmHg),,
"CC1(C)C(=O)Nc2nc(-c3cn4ccnc4c(Cc4cccc(F)c4)n3)nc(N)c21 [Example 71, 4-amino-2-(8-(3-fluorobenzyl)imidazo[1,2-a]pyrazin-6-yl)-5,5-dimethyl-5H-pyrrolo[2,3-d]pyrimidin-6(7H)-one]",109,44,C (Category C=SBP in SHRs>40 mmHg),,
"CCC1(C2CC2)C(=O)Nc2nc(-c3cn4ccnc4c(CCC(F)(F)C(F)(F)F)n3)nc(N)c21 (stereo not drawn) [Example 86B, 4-amino-5-cyclopropyl-5-ethyl-2-(8-(3,3,4,4,4-pentafluorobutyl)imidazo [1,2-a]pyrazin-6-yl)-5H-pyrrolo[2,3-d]pyrimidin-6(7H)-one]",102,201,,,A (Category A=SBP in SHRs<20 mmHg)

# Continued, in another order:
Emax [1] [%],EC50 [1] [nM],SMILES,"Maximum peak decrease of systolic blood pressure (SBP) in SHR, Cat. ([2]; P.O. 1.0 mpk)","Maximum peak decrease of systolic blood pressure (SBP) in SHR, Cat. ([2]; P.O. 0.3 mpk)","Maximum peak decrease of systolic blood pressure (SBP) in SHR, Cat. ([2]; P.O. 3.0 mpk)"
116,9,"CC1(c2ccc(F)cn2)C(=O)Nc2nc(-c3cn4ccnc4c(Cc4ccc(F)cc4)n3)nc(N)c21 (stereo not drawn) [Example 69B, 4-Amino-2-(8-(4-fluorobenzyl)imidazo[1,2-a]pyrazin-6-yl)-5-(5-fluoropyridin-2-yl)-5-methyl-5H-pyrrolo[2,3-d]pyrimidin-6(7H)-one]",,C (Category C=SBP in SHRs>40 mmHg),
109,21,"CC1(C)C(=O)Nc2nc(-c3cn4ccnc4c(Cc4ccccc4F)n3)nc(N)c21 [Example 70, 4-amino-2-(8-(2-fluorobenzyl)imidazo[1,2-a]pyrazin-6-yl)-5,5-dimethyl-5H-pyrrolo[2,3-d]pyrimidin-6(7H)-one]",,B (Category B=SBP in SHRs 20-40 mmHg),
119,91,"CC1(C)C(=O)Nc2nc(-c3cn4ccnc4c(Cc4ccccc4)n3)nc(N)c21 [Example 76, 4-amino-2-(8-benzylimidazo[1,2-a]pyrazin-6-yl)-5,5-dimethyl-5H-pyrrolo[2,3-d]pyrimidin-6(7H)-one]",B (Category B=SBP in SHRs 20-40 mmHg),,
96,13,"CC1(c2ccccc2)C(=O)Nc2nc(-c3cn4ccnc4c(Cc4c(F)ccc(F)c4F)n3)nc(N)c21 (stereo not drawn) [Example 100B, 4-amino-5-methyl-5-phenyl-2-(8-(2,3,6-trifluorobenzyl)imidazo[1,2-a]pyrazin-6-yl)-5H-pyrrolo[2,3-d]pyrimidin-6(7H)-one]",,A (Category A=SBP in SHRs<20 mmHg),
89,289,"CC1(c2ccc(F)cc2)C(=O)Nc2nc(-c3cn4ccnc4c(-c4ccccc4)n3)nc(N)c21 (stereo not drawn) [Example 112A, 4-amino-5-(4-fluorophenyl)-5-methyl-2-(8-phenylimidazo[1,2-a]pyrazin-6-yl)-5H-pyrrolo[2,3-d]pyrimidin-6(7H)-one]",,,B (Category B=SBP in SHRs 20-40 mmHg)
